According to PubChem BioAssay AID248 (DTP/NCI, 2004):
Where “and” joins values, the source holds several entries; their conditions need not be identical. Equal values may be shown once. Inconclusive results and toxic doses are left out. Cut-off read from the data, not from the text of the source: active = T/C of 150% or more; inactive = T/C below 125%.

Test system: L1210 leukemia ip in BDF1 mice, survival T/C
Assay: NCI In Vivo Anticancer Drug Screen. Data for tumor model L1210 Leukemia (intraperitoneal) in B6D2F1 (BDF1) mice
Settings: endpoint: mean survival time, higher = longer survival
Procedure, shortened: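 Antitumor effect is assessed in tumor-bearing animals. Survival in the compound arm is compared with a vehicle-dosed control arm and expressed as their quotient.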

[1] = dose: 100.0 mg/kg/injection, schedule: Q01DX009 (ip), vehicle: Klucel (hydroxypropylcellulose) (HPC)
[2] = dose: 100.0 mg/kg/injection, schedule: Q04DX002 (ip), vehicle: Klucel (hydroxypropylcellulose) (HPC)
[3] = dose: 200.0 mg/kg/injection, schedule: Q01DX009 (ip), vehicle: Klucel (hydroxypropylcellulose) (HPC)
[4] = dose: 200.0 mg/kg/injection, schedule: Q04DX002 (ip), vehicle: Klucel (hydroxypropylcellulose) (HPC)
[5] = dose: 200.0 mg/kg/injection, schedule: Q04DX003 (ip), vehicle: Klucel (hydroxypropylcellulose) (HPC)
[6] = dose: 400.0 mg/kg/injection, schedule: Q04DX002 (ip), vehicle: Klucel (hydroxypropylcellulose) (HPC)
[7] = dose: 400.0 mg/kg/injection, schedule: Q04DX003 (ip), vehicle: Klucel (hydroxypropylcellulose) (HPC)
[8] = dose: 100.0 mg/kg/injection, schedule: Q01DX001 (ip), vehicle: other
[9] = dose: 200.0 mg/kg/injection, schedule: Q01DX001 (ip), vehicle: other
[10] = dose: 400.0 mg/kg/injection, schedule: Q01DX001 (ip), vehicle: other
[11] = dose: 100.0 mg/kg/injection, schedule: Q01DX009 (ip), vehicle: saline with Tween-80
[12] = dose: 100.0 mg/kg/injection, schedule: Q04DX003 (ip), vehicle: saline with Tween-80
[13] = dose: 200.0 mg/kg/injection, schedule: Q01DX009 (ip), vehicle: saline with Tween-80
[14] = dose: 200.0 mg/kg/injection, schedule: Q04DX003 (ip), vehicle: saline with Tween-80
[15] = dose: 50.0 mg/kg/injection, schedule: Q01DX001 (ip), vehicle: carboxymethylcellulose (CMC)
[16] = dose: 100.0 mg/kg/injection, schedule: Q01DX001 (ip), vehicle: carboxymethylcellulose (CMC)
[17] = dose: 200.0 mg/kg/injection, schedule: Q01DX001 (ip), vehicle: carboxymethylcellulose (CMC)
[18] = dose: 400.0 mg/kg/injection, schedule: Q01DX001 (ip), vehicle: carboxymethylcellulose (CMC)
[19] = dose: 25.0 mg/kg/injection, schedule: Q01DX009 (ip), vehicle: Klucel (hydroxypropylcellulose) (HPC)
[20] = dose: 50.0 mg/kg/injection, schedule: Q01DX009 (ip), vehicle: Klucel (hydroxypropylcellulose) (HPC)
[21] = dose: 75.0 mg/kg/injection, schedule: Q01DX001 (ip), vehicle: carboxymethylcellulose (CMC)
[22] = dose: 100.0 mg/kg/injection, schedule: Q01DX001 (ip), vehicle: saline with Tween-80
[23] = dose: 100.0 mg/kg/injection, schedule: Q04DX002 (ip), vehicle: saline with Tween-80
[24] = dose: 200.0 mg/kg/injection, schedule: Q01DX001 (ip), vehicle: saline with Tween-80
[25] = dose: 200.0 mg/kg/injection, schedule: Q04DX002 (ip), vehicle: saline with Tween-80
[26] = dose: 400.0 mg/kg/injection, schedule: Q01DX009 (ip), vehicle: saline with Tween-80
[27] = dose: 400.0 mg/kg/injection, schedule: Q04DX002 (ip), vehicle: saline with Tween-80
[28] = dose: 400.0 mg/kg/injection, schedule: Q04DX003 (ip), vehicle: saline with Tween-80
[29] = dose: 100.0 mg/kg/injection, schedule: Q04DX003 (ip), vehicle: Klucel (hydroxypropylcellulose) (HPC)
[30] = dose: 100.0 mg/kg/injection, schedule: Q01DX001 (ip), vehicle: saline
[31] = dose: 200.0 mg/kg/injection, schedule: Q01DX001 (ip), vehicle: saline
[32] = dose: 400.0 mg/kg/injection, schedule: Q01DX001 (ip), vehicle: saline

Measured: T/C

O=C(Nc1ccc([N+](=O)[O-])cn1)Nc1cc([N+](=O)[O-])ccc1F
inactive: dose: 100.0 mg/kg/injection, schedule: Q01DX001 (ip), vehicle: Klucel (hydroxypropylcellulose) (HPC) 93 % of control | [1] 94 % of control and 89 % of control | [2] 95 % of control and 102 % of control | dose: 200.0 mg/kg/injection, schedule: Q01DX001 (ip), vehicle: Klucel (hydroxypropylcellulose) (HPC) 100 % of control | [3] 94 % of control and 89 % of control | [4] 92 % of control and 102 % of control | [5] 87 % of control | dose: 400.0 mg/kg/injection, schedule: Q01DX001 (ip), vehicle: Klucel (hydroxypropylcellulose) (HPC) 94 % of control | dose: 400.0 mg/kg/injection, schedule: Q01DX009 (ip), vehicle: Klucel (hydroxypropylcellulose) (HPC) 100 % of control | [6] 94 % of control and 95 % of control | [7] 92 % of control

Cc1cc(C(=O)NN)c(C#N)c(=O)[nH]1
inactive: [8] 93 % of control | [9] 95 % of control | [10] 97 % of control

CN(C)CCCCCO
inactive: dose: 25.0 mg/kg/injection, schedule: Q01DX009 (ip), vehicle: saline with Tween-80 96 % of control | dose: 50.0 mg/kg/injection, schedule: Q01DX009 (ip), vehicle: saline with Tween-80 102 % of control and 87 % of control | [11] 91 % of control | [12] 97 % of control | [13] 100 % of control | [14] 100 % of control

Cn1c2c(c(=O)[nH]c1=O)OCN(Cc1ccccc1)C2
inactive: [15] 91 % of control | [16] 100 % of control | [17] 94 % of control | [18] 100 % of control

CC(OC(=O)CC(=O)CCl)c1ccccc1 (configuration not stated)
inactive: [2] 102 % of control | [4] 98 % of control | [6] 87 % of control

Cc1cc(C)c(NC(=O)Nc2ccccc2F)cc1C
inactive: [19] 98 % of control | [20] 93 % of control | [1] 96 % of control | [2] 102 % of control | [3] 89 % of control | [4] 91 % of control | [6] 115 % of control

ClCCNCc1ccc(Nc2ccnc3cc(Cl)ccc23)cc1
inactive: [21] 103 % of control

CN(C)C(=S)SSC(=S)N(C)C
inactive: [20] 92 % of control | [1] 99 % of control | dose: 100.0 mg/kg/injection, schedule: Q04DX003 (ip), vehicle: other 95 % of control | dose: 200.0 mg/kg/injection, schedule: Q04DX003 (ip), vehicle: other 103 % of control | dose: 400.0 mg/kg/injection, schedule: Q04DX003 (ip), vehicle: other 96 % of control

NC(=S)N1N=C(c2ccccc2)CC1=O
inactive: [21] 107 % of control | dose: 150.0 mg/kg/injection, schedule: Q01DX001 (ip), vehicle: carboxymethylcellulose (CMC) 96 % of control | dose: 300.0 mg/kg/injection, schedule: Q01DX001 (ip), vehicle: carboxymethylcellulose (CMC) 96 % of control

O=c1oc(=O)c2ccccc2c2ccccc12
inactive: [8] 93 % of control | [9] 96 % of control | [10] 107 % of control

O=C(C[n+]1ccc2ccccc2c1)c1cccs1
inactive: dose: 25.0 mg/kg/injection, schedule: Q04DX002 (ip), vehicle: Klucel (hydroxypropylcellulose) (HPC) 90 % of control and 91 % of control | dose: 50.0 mg/kg/injection, schedule: Q04DX002 (ip), vehicle: Klucel (hydroxypropylcellulose) (HPC) 95 % of control and 90 % of control | [2] 98 % of control

COC(=O)c1ccccc1NC(=S)NC(=O)c1ccc(Cl)cc1Cl
inactive: [22] 92 % of control | [11] 97 % of control and 102 % of control | [23] 101 % of control and 88 % of control | [12] 87 % of control | [24] 92 % of control | [13] 95 % of control and 97 % of control | [25] 103 % of control and 92 % of control | [14] 90 % of control | dose: 400.0 mg/kg/injection, schedule: Q01DX001 (ip), vehicle: saline with Tween-80 89 % of control | [26] 97 % of control and 98 % of control | [27] 106 % of control and 88 % of control | [28] 92 % of control

CCCOc1ccc(-c2nc(-c3ccc(N=Cc4ccc(N(CCCOS(C)(=O)=O)CCCOS(C)(=O)=O)cc4)cc3)cs2)cc1
inactive: [12] 91 % of control | [14] 86 % of control | [28] 89 % of control

Cc1ccc(S(=O)(=O)OCC(CO)(COS(=O)(=O)c2ccc(C)cc2)[N+](=O)[O-])cc1
inactive: dose: 50.0 mg/kg/injection, schedule: Q01DX009 (ip), vehicle: saline 104 % of control | dose: 100.0 mg/kg/injection, schedule: Q01DX009 (ip), vehicle: saline 94 % of control | [29] 97 % of control | dose: 200.0 mg/kg/injection, schedule: Q01DX009 (ip), vehicle: saline 96 % of control | [5] 105 % of control

CC(=O)Nc1cc(C)ns1
inactive: [15] 104 % of control | [16] 104 % of control | [17] 101 % of control | [18] 98 % of control

CN1C(=O)CCS(=O)(=O)C1c1ccc(Cl)cc1 (configuration not stated)
inactive: [19] 104 % of control | dose: 25.0 mg/kg/injection, schedule: Q04DX003 (ip), vehicle: Klucel (hydroxypropylcellulose) (HPC) 94 % of control | [20] 103 % of control | dose: 50.0 mg/kg/injection, schedule: Q04DX003 (ip), vehicle: Klucel (hydroxypropylcellulose) (HPC) 101 % of control | [1] 101 % of control | [29] 101 % of control | [3] 92 % of control | [5] 97 % of control | [7] 99 % of control

COc1ccc(-c2nc3ncnc(N)c3[nH]2)cc1
inactive: dose: 12.5 mg/kg/injection, schedule: Q01DX001 (ip), vehicle: saline with Tween-80 102 % of control | dose: 25.0 mg/kg/injection, schedule: Q01DX001 (ip), vehicle: saline with Tween-80 109 % of control | dose: 50.0 mg/kg/injection, schedule: Q01DX001 (ip), vehicle: saline with Tween-80 106 % of control

O=C(NC(=S)Nc1ccc(Cl)c(Cl)c1)c1ccc(Cl)cc1Cl
inactive: [22] 93 % of control | [11] 97 % of control and 98 % of control | [23] 98 % of control and 90 % of control | [12] 93 % of control | [24] 89 % of control | [13] 91 % of control and 92 % of control | [25] 101 % of control | [14] 93 % of control | [26] 87 % of control and 91 % of control | [27] 95 % of control and 90 % of control | [28] 93 % of control

COc1ccc(C(=O)C(=O)c2ccccc2Cl)cc1
inactive: dose: 100.0 mg/kg/injection, schedule: Q01DX005 (ip), vehicle: saline with Tween-80 104 % of control | [11] 96 % of control | dose: 200.0 mg/kg/injection, schedule: Q01DX005 (ip), vehicle: saline with Tween-80 101 % of control | [13] 107 % of control | dose: 400.0 mg/kg/injection, schedule: Q01DX005 (ip), vehicle: saline with Tween-80 101 % of control | [26] 100 % of control

NCCCC(N)C(=O)O (configuration not stated)
inactive: [30] 98 % of control | [31] 102 % of control | [32] 106 % of control

Cc1c(C)c(C)c(CN/N=C/c2ccncc2)c(C)c1C
inactive: [29] 98 % of control | [5] 109 % of control | [7] 101 % of control

N#CCCN(CCC#N)C(=O)Nc1cccc(Cl)c1
inactive: [12] 98 % of control | [14] 88 % of control | [28] 91 % of control

CCC1(c2ccccc2)C2C(=O)NC(=O)C1C(=O)NC2=O (configuration not stated)
inactive: [30] 98 % of control | [31] 95 % of control | [32] 101 % of control

CC1CCN(C(=O)Nc2cccc(C(F)(F)F)c2)CC1
inactive: [11] 94 % of control | [13] 97 % of control | [26] 91 % of control
